This experiment has as its target Maltase-glucoamylase (Homo sapiens, UniProt O43451). Description: Inhibition of recombinant human maltase glucoamylase N-terminal catalytic domain.
Chain of Maltase-glucoamylase (O43451 whole entry, the tested form may be a part): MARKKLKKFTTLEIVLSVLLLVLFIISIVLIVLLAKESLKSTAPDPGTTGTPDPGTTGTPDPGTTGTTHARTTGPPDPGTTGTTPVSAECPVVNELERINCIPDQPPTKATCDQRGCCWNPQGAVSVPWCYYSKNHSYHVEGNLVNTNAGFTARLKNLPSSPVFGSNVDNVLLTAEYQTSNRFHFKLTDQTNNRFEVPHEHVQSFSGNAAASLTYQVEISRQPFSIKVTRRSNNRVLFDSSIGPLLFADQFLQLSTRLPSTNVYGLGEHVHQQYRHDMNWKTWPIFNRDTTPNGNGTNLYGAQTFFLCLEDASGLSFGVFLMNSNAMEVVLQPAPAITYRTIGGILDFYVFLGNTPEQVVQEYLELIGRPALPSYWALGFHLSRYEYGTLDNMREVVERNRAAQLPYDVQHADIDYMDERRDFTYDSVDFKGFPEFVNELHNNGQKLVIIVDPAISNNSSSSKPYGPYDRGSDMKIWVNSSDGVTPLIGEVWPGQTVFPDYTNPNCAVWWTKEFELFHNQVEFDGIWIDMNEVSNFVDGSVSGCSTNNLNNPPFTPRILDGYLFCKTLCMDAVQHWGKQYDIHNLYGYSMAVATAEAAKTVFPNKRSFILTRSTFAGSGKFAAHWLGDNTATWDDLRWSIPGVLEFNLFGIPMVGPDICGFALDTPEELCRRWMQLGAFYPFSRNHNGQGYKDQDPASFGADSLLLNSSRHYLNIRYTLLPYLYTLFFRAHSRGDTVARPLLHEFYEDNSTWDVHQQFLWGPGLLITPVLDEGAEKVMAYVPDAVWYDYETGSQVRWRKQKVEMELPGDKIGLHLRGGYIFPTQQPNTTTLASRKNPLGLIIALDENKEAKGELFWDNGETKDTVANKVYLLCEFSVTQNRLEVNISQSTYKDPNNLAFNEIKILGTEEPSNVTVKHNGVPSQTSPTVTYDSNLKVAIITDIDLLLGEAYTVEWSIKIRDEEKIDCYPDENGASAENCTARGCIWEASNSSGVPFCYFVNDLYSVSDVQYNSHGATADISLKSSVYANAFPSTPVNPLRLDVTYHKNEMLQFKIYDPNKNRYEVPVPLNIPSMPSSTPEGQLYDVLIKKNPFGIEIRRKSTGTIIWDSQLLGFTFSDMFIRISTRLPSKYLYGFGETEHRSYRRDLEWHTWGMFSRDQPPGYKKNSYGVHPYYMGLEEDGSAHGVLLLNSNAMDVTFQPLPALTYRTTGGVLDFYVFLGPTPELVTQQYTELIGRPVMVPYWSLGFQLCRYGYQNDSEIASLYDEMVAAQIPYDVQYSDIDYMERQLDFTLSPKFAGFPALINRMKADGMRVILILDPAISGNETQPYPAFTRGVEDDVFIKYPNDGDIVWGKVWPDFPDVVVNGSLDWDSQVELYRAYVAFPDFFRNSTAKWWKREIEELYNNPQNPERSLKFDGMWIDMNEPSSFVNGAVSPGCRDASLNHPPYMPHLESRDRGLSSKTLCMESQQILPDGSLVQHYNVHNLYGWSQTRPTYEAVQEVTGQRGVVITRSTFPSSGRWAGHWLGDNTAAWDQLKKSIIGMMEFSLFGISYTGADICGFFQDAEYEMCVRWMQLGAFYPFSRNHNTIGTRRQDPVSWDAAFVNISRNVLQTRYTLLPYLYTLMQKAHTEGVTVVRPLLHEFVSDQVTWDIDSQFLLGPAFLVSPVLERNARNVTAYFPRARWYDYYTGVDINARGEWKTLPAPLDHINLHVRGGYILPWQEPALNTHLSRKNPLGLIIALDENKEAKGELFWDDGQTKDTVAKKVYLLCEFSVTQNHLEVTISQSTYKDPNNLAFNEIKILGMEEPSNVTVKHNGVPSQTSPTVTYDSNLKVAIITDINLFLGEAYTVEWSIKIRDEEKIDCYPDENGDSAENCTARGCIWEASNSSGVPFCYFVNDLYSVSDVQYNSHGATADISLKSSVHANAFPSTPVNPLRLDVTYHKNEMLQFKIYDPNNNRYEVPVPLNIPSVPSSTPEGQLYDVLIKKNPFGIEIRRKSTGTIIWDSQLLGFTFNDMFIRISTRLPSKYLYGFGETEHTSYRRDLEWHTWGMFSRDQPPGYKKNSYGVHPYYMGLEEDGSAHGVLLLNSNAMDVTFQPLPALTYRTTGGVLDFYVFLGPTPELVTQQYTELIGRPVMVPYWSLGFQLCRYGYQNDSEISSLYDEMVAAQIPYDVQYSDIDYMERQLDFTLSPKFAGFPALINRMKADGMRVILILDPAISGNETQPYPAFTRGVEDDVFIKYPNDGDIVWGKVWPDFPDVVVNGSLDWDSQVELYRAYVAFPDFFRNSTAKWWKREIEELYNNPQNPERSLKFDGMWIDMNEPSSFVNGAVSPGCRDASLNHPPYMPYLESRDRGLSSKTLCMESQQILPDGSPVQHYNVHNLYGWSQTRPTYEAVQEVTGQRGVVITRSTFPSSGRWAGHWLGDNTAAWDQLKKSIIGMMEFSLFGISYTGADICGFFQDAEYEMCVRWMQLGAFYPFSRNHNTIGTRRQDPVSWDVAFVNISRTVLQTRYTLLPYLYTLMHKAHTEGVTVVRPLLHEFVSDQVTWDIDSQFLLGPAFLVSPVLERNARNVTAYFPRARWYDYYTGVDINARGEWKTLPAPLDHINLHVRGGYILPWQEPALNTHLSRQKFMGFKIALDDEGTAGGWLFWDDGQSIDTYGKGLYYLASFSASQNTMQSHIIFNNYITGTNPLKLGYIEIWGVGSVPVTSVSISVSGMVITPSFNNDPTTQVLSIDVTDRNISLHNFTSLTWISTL
By Ki is commonly meant the equilibrium dissociation constant of an inhibitor or competing ligand from its target. Turning to `O=S(=O)([O-])O[C@@H]([C@H](O)[C@H](O)[C@H](O)CO)[C@H](O)C[S+]1C[C@@H](O)[C@H](O)[C@H]1CO` (some centres undefined), the inhibition constant Ki was 200 nM.

In the case of `O=S(=O)([O-])O[C@@H]([C@H](O)[C@H](O)[C@@H](O)CO)[C@H](O)C[S+]1C[C@@H](O)[C@H](O)[C@H]1CO` (some centres undefined) [KOTALANOL], the inhibitory constant (Ki) came out at 190 nM.

For `O=S(=O)([O-])O[C@@H]([C@H](O)[C@@H](O)[C@H](O)CO)[C@H](O)C[S+]1C[C@@H](O)[C@H](O)[C@H]1CO` (some centres undefined), the inhibition constant Ki turned out to be 130 nM.

`O=S(=O)([O-])O[C@@H]([C@H](O)[C@@H](O)[C@@H](O)CO)[C@H](O)C[S+]1C[C@@H](O)[C@H](O)[C@H]1CO` (some centres undefined): the inhibition constant (Ki) came out at 100 nM.

For the origin of these results see ChEMBL document CHEMBL1156241, “Synthesis of a biologically active isomer of kotalanol, a naturally occurring glucosidase inhibitor” (Bioorg Med Chem, 2010).
